Like-named read-outs stand apart in the source and are kept apart here.
Tests used:
Format in all cases: in vivo
[1] = system: Spodoptera frugiperda; experiment: Assay of insecticidal activity of compositions (synergism), 3rd instar; conditions: for pest or weed control at 1 µg/mL: B 1 ppm; for pest or weed control at 50 µg/mL: B 50 ppm
Method: (§1) The compound of the present invention was dissolved in acetone, and then diluted with water into liquids with gradients of different concentrations (ppm). Corn leaves were soaked in liquids of different concentrations for about 20 seconds, air-dried and then placed in petri dishes where 3rd instar Spodoptera frugiperda were placed, respectively; kale leaves were soaked in liquids of different concentrations for about 20 seconds, air-dried and then placed in petri dishes where 3rd instar Spodoptera frugiperda were placed, respectively; peanut leaves were soaked in liquids of different concentrations for about 20 seconds, air-dried and then placed in petri dishes where Tetranychus urticae (adult mite) and Aphis craccivora (adult aphid) were placed, respectively; water bamboo leaves were soaked in liquids of different concentrations for about 20 seconds, air-dried and then placed in petri dishes where 4th instar Chilo suppressalis were placed, respectively. Each petri dish was placed with 10 insects, covered and then stored at 25° C. in a constant temperature room. The number of dead insects were checked after 48 h. The dead insect rate was calculated by the formula: Death rate (%)=(Number of dead insects/Number of test insects)×100. Furthermore, the experiment was conducted in two replications.
• Test targets: Spodoptera frugiperda (3rd instar) and Aphis gossypii (adult aphid) […]
(§2) Different ratios within the selected ratio range were set for toxicity determination, and the optimal ratio was selected according to synergistic effects. When the synergistic effect >0, it indicated a synergistic effect; when the synergistic effect is close to 0, it indicated an addition effect; when the synergistic effect <0, it indicated an antagonistic effect.
(§3) [formula] • wherein, P1, P2—Death rate by each individual agent in a mixed formulation.

[2] = system: Tetranychus urticae; experiment: Insecticidal activity assay, peanut leaf dip, adult mite; conditions: 48 h
Method: as §1

[3] = system: Spodoptera frugiperda; experiment: Insecticidal activity assay, corn leaf dip, 3rd instar larvae; conditions: liquid concentration 0.3 ppm, 48 h
Method: as §1

[4] = system: Spodoptera exigua; experiment: Insecticidal activity assay, kale leaf dip, 3rd instar larvae; conditions: liquid concentration 0.3 ppm, 48 h
[5] = system: Aphis gossypii; experiment: Assay of insecticidal activity of compositions (synergism), zucchini leaves, adult aphid; conditions: for pest or weed control at 1 µg/mL: B 1 ppm; for pest or weed control at 5 µg/mL: B 5 ppm
Method: as §1
• Test targets: Spodoptera frugiperda (3rd instar) and Aphis gossypii (adult aphid)
Referring to the above-mentioned Insecticidal activity assay, when the test target was Aphis gossypii, the zucchini leaves were selected.
as §2, §3

[6] = system: Aphis craccivora; experiment: Insecticidal activity assay, peanut leaf dip, adult aphid; conditions: liquid concentration 8.1 ppm, 48 h
Method: as §1

[7] = 48 h, read-out: Death rate by individual B
[8] = in Cucurbita pepo, 48 h, read-out: Death rate by individual B
[9] = 48 h, B 2 ppm, read-out: Death rate by individual B

## Cc1c(COC(=O)[C@@H]2[C@H](/C=C(\Cl)C(F)(F)F)C2(C)C)cccc1-c1ccccc1 (racemic) [Bifenthrin, reference compound]
[1]; [7]
  pest or weed control at 1 µg/mL: 22%

## Cc1cc(C2=NOC(c3cc(Cl)c(Cl)c(C(F)(F)F)c3)(C(F)(F)F)C2)ccc1C(=O)NC(C)C(=O)OCCO (mixture of isomers) [57 (2R)]
[2]; liquid concentration 8.1 ppm
  Death rate: 90%

## COC(=O)C(NC(=O)c1ccc(C2=NOC(c3cc(Cl)c(Cl)c(C(F)(F)F)c3)(C(F)(F)F)C2)cc1C)OC (stereo not drawn) [Compound 124]
[3]
  Death rate: 80%
[4]
  Death rate: 70%
[2]; liquid concentration 8.1 ppm
  Death rate: 77%

## COC(=O)C(C)NC(=O)c1ccc(C2=NOC(c3cc(F)c(F)c(C(F)(F)F)c3)(C(F)(F)F)C2)cc1C (mixture of isomers) [181 (2R)]
[2]; liquid concentration 8.1 ppm
  Death rate: 70%

## Emamectin-benzoate [reference compound]
[1]; B 2 ppm
  Death rate by individual B: 37%

## C#CCOC(=O)C(C)NC(=O)c1ccc(C2=NOC(c3cc(Cl)c(Cl)c(C(F)(F)F)c3)(C(F)(F)F)C2)cc1C (mixture of isomers) [43 (2R)]
[2]; liquid concentration 0.9 ppm
  Death rate: 85%

## COC(=O)C(CCSC)NC(=O)c1ccc(C2=NOC(c3cc(Cl)c(Cl)c(C(F)(F)F)c3)(C(F)(F)F)C2)cc1C (mixture of isomers) [180 (2R)]
[2]; liquid concentration 8.1 ppm
  Death rate: 45%

## O=[N+]([O-])NC1=NCCN1Cc1ccc(Cl)nc1 [Imidacloprid, reference compound]
[5]; [8]
  pest or weed control at 1 µg/mL: 53%

## Cc1cc(C)c(C2=C(OC(=O)CC(C)(C)C)C3(CCCC3)OC2=O)c(C)c1 [Spiromesifen, reference compound]
[1]; B 100 ppm
  Death rate by individual B: 49%

## CN1COCN(Cc2cnc(Cl)s2)/C1=N\[N+](=O)[O-] [Thiamethoxam, reference compound]
[5]; [8]
  pest or weed control at 1 µg/mL: 64%

## CN/C(=N/CC1CCOC1)N[N+](=O)[O-] (stereo not drawn) [Dinotefuran, reference compound]
[5]; [8]
  pest or weed control at 5 µg/mL: 40%

## C=CCOC(=O)C(C)NC(=O)c1ccc(C2=NOC(c3cc(Cl)c(Cl)c(C(F)(F)F)c3)(C(F)(F)F)C2)cc1C (mixture of isomers) [41 (2R)]
[2]; liquid concentration 0.9 ppm
  Death rate: 75%

## COC(=O)C(C)NC(=O)c1ccc(C2=NOC(c3cc(Cl)c(SC)c(C(F)(F)F)c3)(C(F)(F)F)C2)cc1C (mixture of isomers) [187 (2R)]
[2]; liquid concentration 8.1 ppm
  Death rate: 63%

## Abamectin [reference compound]
[1]; B 100 ppm
  Death rate by individual B: 25%

## COC(=O)C(NC(=O)c1ccc(C2=NOC(c3cc(Cl)c(Cl)c(C(F)(F)F)c3)(C(F)(F)F)C2)cc1C)C(C)C (stereo not drawn) [Compound 111]
[4]
  Death rate: 60%
[6]
  Death rate: 40%

## CCN(Cc1ccc(Cl)nc1)/C(=C/[N+](=O)[O-])NC [Nitenpyram, reference compound]
[5]; [8]
  pest or weed control at 1 µg/mL: 36%

## Spinetoram [reference compound]
[1]; B 0.5 ppm
  Death rate by individual B: 62%

## CCOC(=O)[C@@H](C)NC(=O)c1ccc(C2=NOC(c3cc(Cl)c(Cl)c(C(F)(F)F)c3)(C(F)(F)F)C2)cc1C (stereo partly drawn) [Compound 30 (2R)]
[3]
  Death rate: 90%
[2]; liquid concentration 0.9 ppm
  Death rate: 80%

## COC(=O)N(C(=O)N1CO[C@@]2(C(=O)OC)Cc3cc(Cl)ccc3C2=N1)c1ccc(OC(F)(F)F)cc1 [Indoxacarb, reference compound]
[1]; B 0.5 ppm
  Death rate by individual B: 36%

## CCOC(=O)OC1=C(c2c(C)cc(Cl)cc2C)C(=O)N(C)C12CCN(OC)CC2 [Spiropidion, reference compound]
[1]; B 2 ppm
  Death rate by individual B: 39%

## CC(C)c1cc(Oc2ccccc2)cc(C(C)C)c1NC(=S)NC(C)(C)C [Diafenthiuron, reference compound]
[1]; [7]
  pest or weed control at 100 µg/mL: 49%

## CC1(C)[C@H](C(=O)O[C@H](C#N)c2cccc(Oc3ccccc3)c2)[C@@H]1/C=C(\Cl)C(F)(F)F (racemic) [lambda-cyhalothrin, lambda-Cyhalothrin, reference compound]
[1]; [9]
  pest or weed control at 2 µg/mL: 41%

## CCc1nn(C)c(C(=O)NCc2ccc(Oc3ccc(C)cc3)cc2)c1Cl [Tolfenpyrad, reference compound]
[5]; [8]
  pest or weed control at 1 µg/mL: 35%

## CC(c1ccc(C(F)(F)F)nc1)S(C)(=O)=NC#N (stereo not drawn) [Sulfoxaflor, reference compound]
[5]; in Cucurbita pepo, 48 h, B 2 ppm, read-out: Death rate by individual B
  pest or weed control at 2 µg/mL: 46%

## COC(=O)[C@@H](C)N(C)C(=O)c1ccc(C2=NOC(c3cc(Cl)c(Cl)c(C(F)(F)F)c3)(C(F)(F)F)C2)cc1C (stereo partly drawn) [Compound 4 (2R)]
[3]
  Death rate: 100%

## CCOC(=O)OC1=C(c2cc(C)ccc2C)C(=O)N[C@]12CC[C@@H](OC)CC2 [Spirotetramat, reference compound]
[1]; 48 h, B 100 ppm, read-out: Death rate by individual B
  pest or weed control at 100 µg/mL: 47%

## Cc1cc(C2=NOC(c3cc(Cl)c(Cl)c(C(F)(F)F)c3)(C(F)(F)F)C2)ccc1C(=O)NC(C)C(=O)O [Compound 151 (5S, 2R)]
[2]; liquid concentration 8.1 ppm
  Death rate: 100%

## COC(=O)C(C)NC(=O)c1ccc(C2=NOC(c3cc(Cl)c(OC)c(C(F)(F)F)c3)(C(F)(F)F)C2)cc1C (mixture of isomers) [183 (2R)]
[3]
  Death rate: 100%
[4]
  Death rate: 100%

## COc1cccc(C(=O)NN(C(=O)c2cc(C)cc(C)c2)C(C)(C)C)c1C [Methoxyfenozide, reference compound]
[1]; [9]
  pest or weed control at 2 µg/mL: 31%

## CNC(=O)c1cc(C#N)cc(C)c1NC(=O)c1cc(Br)nn1-c1ncccc1Cl [Cyantraniliprole, reference compound]
[5]; [8]
  pest or weed control at 5 µg/mL: 36%

## COC(=O)C(C)NC(=O)c1ccc(C2=NOC(c3cc(Cl)c(Cl)c(C(F)(F)F)c3)(C(F)(F)F)C2)cc1C(C)C (mixture of isomers) [141 (2R)]
[3]
  Death rate: 90%

## O=c1c(-c2cccc(C(F)(F)F)c2)c([O-])[n+](Cc2cncnc2)c2ccccn12 [Triflumezopyrim, reference compound]
[1]; B 100 ppm
  Death rate by individual B: 33%

## COC(=O)C(C)NC(=O)c1ccc(C2=NOC(c3cc(Cl)c(OC)c(C(F)(F)F)c3)(C(F)(F)F)C2)cc1C [Compound 183 (5S, 2R)]
[2]; liquid concentration 8.1 ppm
  Death rate: 70%

## COC(=O)C(CC(N)=O)NC(=O)c1ccc(C2=NOC(c3cc(Cl)c(Cl)c(C(F)(F)F)c3)(C(F)(F)F)C2)cc1C (mixture of isomers) [179 (2R)]
[2]; liquid concentration 8.1 ppm
  Death rate: 80%

## O=C(NC(=O)c1c(F)cccc1F)Nc1cc(Cl)c(OC(F)(F)C(F)C(F)(F)F)cc1Cl (stereo not drawn) [Lufenuron, reference compound]
[1]; [7]
  pest or weed control at 50 µg/mL: 38%

## CC1=NNC(=O)N(/N=C/c2cccnc2)C1 [Pymetrozine, reference compound]
[1]; [7]
  pest or weed control at 50 µg/mL: 30%

## CCOCn1c(-c2ccc(Cl)cc2)c(C#N)c(Br)c1C(F)(F)F [Chlorfenapyr, reference compound]
[1]; [7]
  pest or weed control at 50 µg/mL: 59%

## COC(=O)C(Cc1ccccc1)NC(=O)c1ccc(C2=NOC(c3cc(Cl)c(Cl)c(C(F)(F)F)c3)(C(F)(F)F)C2)cc1C (mixture of isomers) [131 (2R)]
[2]; liquid concentration 8.1 ppm
  Death rate: 80%

## CCN(C(=O)c1cnn(C(C)C(C)C)c1C)c1ccnnc1 (stereo not drawn) [dimpropyridaz, Dimpropyridaz, reference compound]
[5]; B 2 ppm
  Death rate by individual B: 48%

## Cc1cc(C2=NOC(c3cc(Cl)c(Cl)c(C(F)(F)F)c3)(C(F)(F)F)C2)ccc1C(=O)N[C@H](C)C(=O)O (stereo partly drawn) [Compound 151 (2R)]
[2]; liquid concentration 8.1 ppm
  Death rate: 100%

## COC(=O)C(NC(=O)c1ccc(C2=NOC(c3cc(Cl)c(Cl)c(C(F)(F)F)c3)(C(F)(F)F)C2)cc1C)C1CC1 (stereo not drawn) [Compound 118]
[4]
  Death rate: 60%
[6]
  Death rate: 40%

## CC[S+]([O-])c1c(C#N)nn(-c2c(Cl)cc(C(F)(F)F)cc2Cl)c1N (stereo not drawn) [Ethiprole, reference compound]
[5]; [8]
  pest or weed control at 5 µg/mL: 33%

## COP(=O)(NC(C)=O)SC (stereo not drawn) [Acephate, reference compound]
[1]; [7]
  pest or weed control at 300 µg/mL: 38%

## N#Cc1nn(-c2c(Cl)cc(C(F)(F)F)cc2Cl)c(N)c1[S+]([O-])C(F)(F)F (stereo not drawn) [Fipronil, reference compound]
[1]; [7]
  pest or weed control at 1 µg/mL: 43%

## C/C(=N\C#N)N(C)Cc1ccc(Cl)nc1 [Acetamiprid, reference compound]
[5]; [8]
  pest or weed control at 1 µg/mL: 52%

## CCn1nc(C)cc1/C(OC(=O)C(C)(C)C)=C(/C#N)c1ccc(C(C)(C)C)cc1 [Cyetpyrafen, reference compound]
[1]; B 100 ppm
  Death rate by individual B: 30%

## CNC(=O)c1cc(Cl)cc(C)c1NC(=O)c1cc(Br)nn1-c1ncccc1Cl [Chlorantraniliprole, reference compound]
[1]; 48 h, B 0.5 ppm, read-out: Death rate by individual B
  pest or weed control at 0.5 µg/mL: 50%

## CC(C)N1C(=O)N(c2ccccc2)CS/C1=N\C(C)(C)C [Buprofezin, reference compound]
[1]; 48 h, B 10 ppm, read-out: Death rate by individual B
  pest or weed control at 10 µg/mL: 36%
